Residues, ends and D or L forms follow the SMILES beside them.
How the values were obtained:
CDK2/Cyclin A2 = CDK2/Cyclin A2 (Homo sapiens, UniProt P24941); assay: Inhibition of recombinant human CDK2/cyclin A2 using fluoresceinyl-Ahx-Pro-Val-Lys-Arg-Arg-Leu-Phe-Gly as substrate incubated for 45 mins by fluorescence polarization assay; assay type: protein-complex assay
[1] = biological target: Cyclin-dependent kinase 4/cyclin D1 (Homo sapiens, UniProt P24385); assay: Inhibition of recombinant human CDK4/cyclin D1 using fluoresceinyl-AhxPro-Val-Lys-Arg-Arg-Leu-(3ClPhe)-Gly as substrate incubated for 45 mins by fluorescence polarization assay; assay type: protein-complex assay
Cyclin-dependent kinase 4/cyclin D1, sequence (P11802 whole entry): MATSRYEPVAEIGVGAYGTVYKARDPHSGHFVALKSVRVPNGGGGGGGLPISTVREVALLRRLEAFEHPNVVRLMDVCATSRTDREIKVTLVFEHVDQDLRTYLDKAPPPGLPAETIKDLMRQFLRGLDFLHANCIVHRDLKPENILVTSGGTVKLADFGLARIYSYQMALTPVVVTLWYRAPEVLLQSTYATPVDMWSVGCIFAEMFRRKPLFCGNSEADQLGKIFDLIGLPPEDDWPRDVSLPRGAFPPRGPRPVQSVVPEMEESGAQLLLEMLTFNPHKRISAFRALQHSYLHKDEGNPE
Cyclin-dependent kinase 4/cyclin D1, sequence (P24385 whole entry): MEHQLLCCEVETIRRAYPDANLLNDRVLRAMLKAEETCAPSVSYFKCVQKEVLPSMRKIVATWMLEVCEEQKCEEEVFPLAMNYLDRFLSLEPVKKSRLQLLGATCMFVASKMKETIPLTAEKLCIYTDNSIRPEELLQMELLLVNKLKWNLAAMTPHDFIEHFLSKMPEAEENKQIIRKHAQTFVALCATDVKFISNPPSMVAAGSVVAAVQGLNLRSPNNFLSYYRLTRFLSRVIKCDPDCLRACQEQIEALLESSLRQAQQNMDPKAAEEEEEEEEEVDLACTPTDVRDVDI

U2OS = assay: Antiproliferative activity against human U2OS cells incubated for 72 hrs by MTT assay; assay type: functional, cell-based
[2] = Antiproliferative activity against human DU145 cells incubated for 72 hrs by MTT assay; assay type: functional, cell-based; settings: DU-145, 72 h

Structure (SMILES) | IC50 (CDK2/Cyclin A2) [µM] | IC50 [1] [µM] | IC50 (U2OS) [µM] | IC50 [2] [µM]
CC[C@H](C)[C@H](NC(=O)[C@H](CC(C)C)NC(=O)[C@H](CCCNC(=N)N)NC(=O)c1ccc(CN2CCNCC2)c(O)c1)C(=O)N[C@@H](Cc1ccccc1)C(=O)O (HELM PEPTIDE1{[O=C(c1ccc(CN2CCNCC2)c(O)c1)[*:2]].R.L.I.F}$$$$V2.0) | 4.56 | 10.4 | – | –
CC(C)CC(CC(=O)NC(Cc1ccsc1)C(N)=O)NC(=O)[C@H](CCCNC(=N)N)NC(=O)c1ccc(C=C2CCNCC2)cc1 (stereo partly drawn) | 9.16 | > 100 | – | –
CCCN1CCN(Cc2ccc(C(=O)N[C@@H](CCCNC(=N)N)C(=O)NC(CC(=O)NC(Cc3ccsc3)C(N)=O)CC(C)C)cc2)CC1 (stereo partly drawn) | 31.3 | 8.52 | – | –
CC[C@H](C)[C@H](NC(=O)[C@H](CC(C)C)NC(=O)[C@H](CCCNC(=N)N)NC(=O)c1ccc(CN2CCN(C)CC2)cc1)C(=O)N[C@@H](Cc1ccccc1)C(=O)O (HELM PEPTIDE1{[CN1CCN(Cc2ccc(C(=O)[*:2])cc2)CC1].R.L.I.F}$$$$V2.0) | 7.92 | 11.3 | – | –
CCN1CCN(Cc2ccc(C(=O)N[C@@H](CCCNC(=N)N)C(=O)NC(CC(=O)NC(Cc3ccsc3)C(N)=O)CC(C)C)cc2)CC1 (stereo partly drawn) | 17.4 | 74.3 | – | –
CC[C@H](C)[C@H](NC(=O)[C@H](CC(C)C)NC(=O)[C@H](C)NC(=O)c1ccc(CN2CCNCC2)cc1)C(=O)N[C@@H](Cc1ccccc1)C(=O)O (HELM PEPTIDE1{[O=C(c1ccc(CN2CCNCC2)cc1)[*:2]].A.L.I.F}$$$$V2.0) | > 100 | 51.5 | – | –
CCN1CCN(Cc2ccc(C(=O)N[C@@H](CCCNC(=N)N)C(=O)NC(CC(=O)NC(Cc3ccsc3)C(N)=O)CC(C)C)cc2)[C@@H](C)C1 (stereo partly drawn) | 6.78 | 45.6 | – | –
CC[C@H](C)[C@H](NC(=O)[C@H](CC(C)C)NC(=O)[C@H](CCCNC(=N)N)NC(=O)c1ccc(N2CCNCC2)cc1)C(=O)N[C@@H](Cc1ccccc1)C(=O)O (HELM PEPTIDE1{[O=C(c1ccc(N2CCNCC2)cc1)[*:2]].R.L.I.F}$$$$V2.0) | – | 23.8 | – | –
CC[C@H](C)[C@H](NC(=O)[C@H](CC(C)C)NC(=O)[C@H](CCCNC(=N)N)NC(=O)c1ccc(CN2CCNCC2)cc1)C(=O)N[C@@H](Cc1ccccc1)C(=O)O (HELM PEPTIDE1{[O=C(c1ccc(CN2CCNCC2)cc1)[*:2]].R.L.I.F}$$$$V2.0) | 12.9 | 11.7 | – | –
CCOc1cc(C(=O)N[C@@H](CCCNC(=N)N)C(=O)N[C@@H](CC(C)C)C(=O)N[C@H](C(=O)N[C@@H](Cc2ccccc2)C(=O)O)[C@@H](C)CC)ccc1CN1CCNCC1 (HELM PEPTIDE1{[CCOc1cc(C(=O)[*:2])ccc1CN1CCNCC1].R.L.I.F}$$$$V2.0) | 5.95 | 5.14 | – | –
CC(C)C[C@H](NC(=O)[C@H](CCCNC(=N)N)NC(=O)c1ccc(CNC(=N)N)cc1)C(=O)N[C@@H](CC(N)=O)C(=O)N1CCC[C@@H]1C(=O)N[C@H](Cc1ccccc1)C(=O)N[C@@H](Cc1ccccc1)C(=O)O | 0.69 | 15.3 | – | –
CC(C)CC(CC(=O)N(C)[C@@H](Cc1ccccc1)C(N)=O)NC(=O)[C@H](CCCNC(=N)N)NC(=O)c1ccc(CN2CCNC[C@H]2C)cc1 (stereo partly drawn) | 22.3 | 45.4 | – | –
CCCN1CCN(Cc2ccc(C(=O)N[C@@H](CCCNC(=N)N)C(=O)NC(CC(=O)NC(Cc3ccsc3)C(N)=O)CC(C)C)cc2)[C@@H](C)C1 (stereo partly drawn) | 22.4 | 9.36 | – | –
CC(C)CC(CC(=O)N(C)[C@@H](Cc1ccccc1)C(N)=O)NC(=O)[C@H](CCCNC(=N)N)NC(=O)c1ccc(CN2CCNC[C@@H]2C)cc1 (stereo partly drawn) | 13.4 | > 100 | 229 | 204
CC(C)C[C@H](NC(=O)[C@H](CCCNC(=N)N)NC(=O)c1ccc(CN2CCNCC2)cc1)C(=O)N[C@@H](CC(N)=O)C(=O)N1CCC[C@@H]1C(=O)N[C@H](Cc1ccccc1)C(=O)N[C@@H](Cc1ccccc1)C(=O)O | 5.3 | 12.9 | – | –
CC(C)CC(CC(=O)NC(Cc1ccsc1)C(N)=O)NC(=O)[C@H](CCCNC(=N)N)NC(=O)c1ccc(CN2CCNC[C@@H]2C)c(O)c1 (stereo partly drawn) | 13.1 | – | – | –

Continued, in another order:

IC50 (CDK2/Cyclin A2) [µM] | IC50 [1] [µM] | Structure (SMILES) | IC50 (U2OS) [µM] | IC50 [2] [µM]
7.42 | 11.8 | CC(C)CC(CC(=O)N(C)[C@@H](Cc1ccccc1)C(N)=O)NC(=O)[C@H](CCCNC(=N)N)NC(=O)c1ccc(CN2CCNCC2)c(O)c1 (stereo partly drawn) | – | –
8.32 | 48.9 | CC(C)CC(CC(=O)N(C)[C@@H](Cc1ccccc1)C(N)=O)NC(=O)[C@H](CCCNC(=N)N)NC(=O)c1ccc(CN2CCN(C3CCN(C)CC3)CC2)cc1 (stereo partly drawn) | – | –
22.6 | 18.6 | CCOc1cc(C(=O)N[C@@H](CCCNC(=N)N)C(=O)NC(CC(=O)N(C)[C@@H](Cc2ccccc2)C(N)=O)CC(C)C)ccc1CN1CCNCC1 (stereo partly drawn) | – | –
> 100 | – | CC(C)CC(CC(=O)NC(Cc1ccsc1)C(N)=O)NC(=O)[C@H](CCCNC(=N)N)NC(=O)c1ccc(CNC2CCNCC2)cc1 (stereo partly drawn) | – | –
> 30 | – | CC(C)CC(CC(=O)NC(Cc1ccsc1)C(N)=O)NC(=O)[C@H](CCCNC(=N)N)NC(=O)c1cc(OC2CCNCC2)cc(OC2CCNCC2)c1 (stereo partly drawn) | – | –
> 50 | – | CC(C)CC(CC(=O)NC(Cc1ccsc1)C(N)=O)NC(=O)[C@H](CCCNC(=N)N)NC(=O)c1ccc(CN(C)C2CCNCC2)cc1 (stereo partly drawn) | – | –
> 30 | – | CC(C)CC(CC(=O)NC(Cc1ccsc1)C(N)=O)NC(=O)[C@H](CCCNC(=N)N)NC(=O)c1ccc(CC2CCNCC2)cc1 (stereo partly drawn) | – | –
40.4 | 31 | CC(C)CC(CC(=O)N(C)[C@@H](Cc1ccccc1)C(N)=O)NC(=O)[C@H](CCCNC(=N)N)NC(=O)c1ccc(OC2CCNCC2)cc1 (stereo partly drawn) | – | –
26 | 69.9 | CC(C)CC(CC(=O)NC(Cc1ccsc1)C(N)=O)NC(=O)[C@H](CCCNC(=N)N)NC(=O)c1ccc(C=C2CCN(C)CC2)cc1 (stereo partly drawn) | – | –
31 | – | CC(C)CC(CC(=O)NC(Cc1ccsc1)C(N)=O)NC(=O)[C@H](CCCNC(=N)N)NC(=O)c1ccc(CN(C)C2CCCNC2)cc1 (stereo partly drawn) | 153 | –

Reference: ChEMBL document CHEMBL3817805, “Benzamide capped peptidomimetics as non-ATP competitive inhibitors of CDK2 using the REPLACE strategy” (Bioorg Med Chem Lett, 2016)
